ChEMBL document CHEMBL3352572, “Design, synthesis and antioxidant activity evaluation of novel β-elemene derivatives” (Bioorg Med Chem Lett, 2014)

Key:
[1] = tested on: HUVEC; assay: Antioxidant activity in HUVEC assessed as suppression of ROS production by measuring fluorescent intensity index at 5 uM pre-incubated for 24 hrs before H2O2 stimulation for 2 hrs by DCF dye based fluorimetric assay; type: functional, Homo sapiens
[2] = tested on: HUVEC; assay: Antioxidant activity in HUVEC assessed as suppression of ROS production pre-incubated for 24 hrs before H2O2 stimulation for 2 hrs by DCF dye based fluorescence microscopy; type: functional, cell-based; details: Homo sapiens
[3] = tested on: HUVEC; assay: Antioxidant activity in HUVEC assessed as suppression of ROS production at 0.5 uM pre-incubated for 24 hrs before H2O2 stimulation for 2 hrs by DCF dye based fluorescence microscopy; type: functional, cell-based; details: Homo sapiens
[4] = tested on: HUVEC; assay: Increase in SOD activity in H2O2-treated HUVEC at 0.5 to 50 uM pre-incubated for 24 hrs before H2O2 stimulation for 2 hrs; type: functional, cell-based; details: Homo sapiens
[5] = tested on: HUVEC; assay: Increase in nitric oxide secretion in H2O2-treated HUVEC at 0.5 to 50 uM pre-incubated for 24 hrs before H2O2 stimulation for 2 hrs; type: functional, cell-based; details: Homo sapiens
[6] = tested on: HUVEC; assay: Reduction in MDA level in H2O2-treated HUVEC at 0.5 to 50 uM pre-incubated for 24 hrs before H2O2 stimulation for 2 hrs; type: functional, cell-based; details: Homo sapiens
[7] = tested on: HUVEC; assay: Reduction in LDH release in H2O2-treated HUVEC at 0.5 to 50 uM pre-incubated for 24 hrs before H2O2 stimulation for 2 hrs; type: functional, cell-based; details: Homo sapiens
[8] = tested on: HUVEC; assay: Cytoprotective activity in H2O2-treated HUVEC assessed as reduction in H2O2-induced cell death at 0.5 to 50 uM pre-incubated for 24 hrs before H2O2 stimulation for 2 hrs by MTT assay; type: functional, cell-based; details: Homo sapiens
[9] = tested on: HUVEC; assay: Cytoprotective activity in H2O2-treated HUVEC assessed as cell survival at 50 uM pre-incubated for 24 hrs before H2O2 stimulation for 2 hrs by MTT assay (reference value: 66.91%); type: functional; details: Homo sapiens, read-out: Survival
[10] = Cytotoxicity against HUVEC assessed as cell survival at 0.5 to 50 uM after 24 hrs by MTT assay; type: cell-based; details: human, HUVEC cells; read-out: Survival
[11] = tested on: HUVEC; assay: Cytotoxicity against HUVEC assessed as cell death 1000 uM after 24 hrs by MTT assay; type: cell-based; details: human
[12] = tested on: HUVEC; assay: Antioxidant activity in HUVEC assessed as suppression of ROS production by measuring fluorescent intensity index at 100 uM pre-incubated for 24 hrs before H2O2 stimulation for 2 hrs by DCF dye based fluorimetric assay; type: functional, cell-based; details: Homo sapiens
[13] = tested on: HUVEC; assay: Cytoprotective activity in H2O2-treated HUVEC assessed as cell survival at 0.5 uM pre-incubated for 24 hrs before H2O2 stimulation for 2 hrs by MTT assay (reference value: 66.91%); type: functional; details: Homo sapiens, read-out: Survival
[14] = tested on: HUVEC; assay: Antioxidant activity in HUVEC assessed as suppression of ROS production by measuring fluorescent intensity index at 10 uM pre-incubated for 24 hrs before H2O2 stimulation for 2 hrs by DCF dye based fluorimetric assay; type: functional, Homo sapiens

## C=C[C@]1(C)CC[C@@H](C(=C)C)C[C@H]1C(=C)COC(=O)c1ccc(Cl)cc1
[1]
  Flu intensity: 1.458

## C=C[C@]1(C)CC[C@@H](C(=C)COC(=O)c2ccc(OC)cc2)C[C@H]1C(=C)C
[1]
  Flu intensity: 1.429

## C=C[C@]1(C)CC[C@@H](C(=C)C)C[C@H]1C(=C)COC(=O)c1cccnc1
[1]
  Flu intensity: 1.397

## C=C[C@]1(C)CC[C@@H](C(=C)C)C[C@H]1C(=C)COC(=O)CCC(=O)O
[1]
  Flu intensity: 1.468

## C=C[C@]1(C)CC[C@@H](C(=C)COC(=O)CCC)C[C@H]1C(=C)C
[1]
  Flu intensity: 1.365

## C=C[C@]1(C)CC[C@@H](C(=C)C)C[C@H]1C(=C)COC(=O)c1ccccc1Cl
[1]
  Flu intensity: 1.443

## C=C[C@]1(C)CC[C@@H](C(=C)CO)C[C@H]1C(=C)C
[1]
  Flu intensity: 1.291

## C=C[C@]1(C)CC[C@@H](C(=C)C)C[C@H]1C(=C)COC(=O)c1ccc([N+](=O)[O-])cc1
[1]
  Flu intensity: 1.393

## C=C[C@]1(C)CC[C@@H](C(=C)COC(=O)c2ccc([N+](=O)[O-])cc2)C[C@H]1C(=C)C
[1]
  Flu intensity: 1.304

## C=C[C@]1(C)CC[C@@H](C(=C)C)C[C@H]1C(=C)COC(=O)c1ccccc1
[1]
  Flu intensity: 1.445

## C=C[C@]1(C)CC[C@@H](C(=C)C)C[C@H]1C(=C)COC(=O)c1ccccc1O
[1]
  Flu intensity: 1.376

## C=C[C@]1(C)CC[C@@H](C(=C)COC(=O)c2ccc(Cl)cc2)C[C@H]1C(=C)C
[1]
  Flu intensity: 1.324

## C=C[C@]1(C)CC[C@@H](C(=C)COC(=O)c2ccccc2C(=O)OCC(=C)[C@@H]2CC[C@@](C)(C=C)[C@H](C(=C)C)C2)C[C@H]1C(=C)C
[1]
  Flu intensity: 1.114
[2]
  inhibition: Dose-dependent effect
[3]
  inhibition: Dose-dependent effect
[4]
  Activity: Dose-dependent effect
[5]
  Activity: Dose-dependent effect
[6]
  inhibition: Dose-dependent effect
[7]
  inhibition: Dose-dependent effect
[8]
  Activity: Dose-dependent effect
[9]
  viability at 50 µM: 97.9%
[10]
  viability at 24 h, up to 50 µM: > 92%
[11]
  Activity: <= 50%

## C=C[C@]1(C)CC[C@@H](C(=C)C)C[C@H]1C(=C)COC(=O)c1ccc(OC)cc1
[1]
  Flu intensity: 1.387

## C=C[C@]1(C)CC[C@@H](C(=C)C)C[C@H]1C(=C)COC(=O)c1ccc(C)cc1
[1]
  Flu intensity: 1.322

## C=C[C@]1(C)CC[C@@H](C(=C)COC(=O)c2ccccc2Cl)C[C@H]1C(=C)C
[1]
  Flu intensity: 1.388

## C=C[C@]1(C)CC[C@@H](C(=C)C)C[C@H]1C(=C)COC(=O)c1ccccc1C(=O)OCC(=C)[C@@H]1C[C@H](C(=C)C)CC[C@@]1(C)C(=C)C
[1]
  Flu intensity: 1.168

## C=C[C@]1(C)CC[C@@H](C(=C)C)C[C@H]1C(=C)COC(=O)c1ccco1
[1]
  Flu intensity: 1.39

## C=C[C@]1(C)CC[C@@H](C(=C)COC(=O)c2ccco2)C[C@H]1C(=C)C
[1]
  Flu intensity: 1.488

## VITAMIN E
[12]
  Flu intensity: 1.23

## C=C[C@]1(C)CC[C@@H](C(=C)C)C[C@H]1C(=C)COC(=O)c1ccccc1C(=O)O
[1]
  Flu intensity: 1.415

## C=C[C@]1(C)CC[C@@H](C(=C)C)C[C@H]1C(=C)COC(=O)c1ccncc1
[1]
  Flu intensity: 1.411

## C=C[C@]1(C)CC[C@@H](C(=C)C)C[C@H]1C(=C)COC(=O)CCC
[1]
  Flu intensity: 1.338

## C=C[C@]1(C)CC[C@@H](C(=C)COC(=O)CC)C[C@H]1C(=C)C
[1]
  Flu intensity: 1.322

## C=C[C@]1(C)CC[C@@H](C(=C)COC(=O)c2ccc(C)cc2)C[C@H]1C(=C)C
[1]
  Flu intensity: 1.411

## C=C[C@]1(C)CC[C@@H](C(=C)C)C[C@H]1C(=C)CO
[1]
  Flu intensity: 1.37

## C=C[C@]1(C)CC[C@@H](C(=C)COC(C)=O)C[C@H]1C(=C)C
[1]
  Flu intensity: 1.391

## C=C[C@]1(C)CC[C@@H](C(=C)C)C[C@H]1C(=C)COC(=O)CCC(=O)OCC(=C)[C@@H]1C[C@H](C(=C)C)CC[C@@]1(C)C(=C)C
[1]
  Flu intensity: 1.123

## C=C[C@]1(C)CC[C@@H](C(=C)COC(=O)c2ccncc2)C[C@H]1C(=C)C
[1]
  Flu intensity: 1.447

## C=C[C@]1(C)CC[C@@H](C(=C)C)C[C@H]1C(=C)COC(C)=O
[1]
  Flu intensity: 1.322

## C=C[C@]1(C)CC[C@@H](C(=C)COC(=O)CCC(=O)OCC(=C)[C@@H]2CC[C@@](C)(C=C)[C@H](C(=C)C)C2)C[C@H]1C(=C)C
[1]
  Flu intensity: 1.092
[2]
  inhibition: Dose-dependent effect
[3]
  inhibition: Dose-dependent effect
[4]
  Activity: Dose-dependent effect
[5]
  Activity: Dose-dependent effect
[6]
  inhibition: Dose-dependent effect
[7]
  inhibition: Dose-dependent effect
[8]
  Activity: Dose-dependent effect
[13]
  viability at 0.5 µM: 81.2%
[9]
  viability at 50 µM: 100%
[10]
  viability at 24 h, up to 50 µM: > 92%
[11]
  Activity: <= 50%

## C=C[C@]1(C)CC[C@@H](C(=C)C)C[C@H]1C(=C)COC(=O)c1cccc(F)c1
[1]
  Flu intensity: 1.39

## C=C[C@]1(C)CC[C@@H](C(=C)C)C[C@H]1C(=C)COC(=O)c1ccc(F)cc1
[1]
  Flu intensity: 1.306

## C=C[C@]1(C)CC[C@@H](C(=C)COC(=O)c2cccnc2)C[C@H]1C(=C)C
[1]
  Flu intensity: 1.524

## C=C[C@]1(C)CC[C@@H](C(=C)C)C[C@H]1C(=C)COC(=O)CC
[1]
  Flu intensity: 1.383

## C=C[C@]1(C)CC[C@@H](C(=C)COC(=O)c2ccccc2C(=O)O)C[C@H]1C(=C)C
[1]
  Flu intensity: 1.416

## C=C[C@]1(C)CC[C@@H](C(=C)COC(=O)c2ccccc2O)C[C@H]1C(=C)C
[1]
  Flu intensity: 1.286

## C=C[C@]1(C)CC[C@@H](C(=C)COC(=O)c2cccc(F)c2)C[C@H]1C(=C)C
[1]
  Flu intensity: 1.39

## C=C[C@]1(C)CC[C@@H](C(=C)COC(=O)c2ccc(F)cc2)C[C@H]1C(=C)C
[1]
  Flu intensity: 1.417

## C=C[C@]1(C)CC[C@@H](C(=C)COC(=O)CCC(=O)O)C[C@H]1C(=C)C
[1]
  Flu intensity: 1.403

## C=C[C@]1(C)CC[C@@H](C(=C)C)C[C@H]1C(=C)C
[1]
  Flu intensity: 1.281
[14]
  Flu intensity: 1.23

## C=C[C@]1(C)CC[C@@H](C(=C)COC(=O)c2ccccc2)C[C@H]1C(=C)C
[1]
  Flu intensity: 1.355
